Experimental findings from US20240139125A1 (INDUSTRIAL COOPERATION FOUNDATION JEONBUK NATIONAL …, priority 2020, published 2024) are described below.

As a reminder, the viability is a read-out of living cells in per cent, often relative to untreated cells.

What all share (format): cell-based
Data set [1] in a line: Cell viability for BIA and analogues, HT1080 cell line. The conditions noted are these: human, HT1080 fibrosarcoma cells; for viability at 5 µM: HT1080, 5 uM; for viability at 10 µM: HT1080, 10 uM. The method, then:
HT1080 MDA-MB-231, SKBR3 and MCF7 cell lines were cultured in a 37° C., 5% CO2 incubator in a medium with 10% Fetal Bovine Serum, 1% penicillin and streptomycin (100 U) added to DMEM.
(§1) The compound prepared in Example 15 was treated with HT1080 fibrosarcoma cell line at 5 μM and 10 μM and cell viability was measured. In addition, the compound prepared in Example 15 on the DU145 prostate cancer cell line was treated with 10 μM, 20 μM, and 30 μM and cell viability was measured (see Table 2, Table 3).

The nature of data set [2]: Cell viability for BIA and analogues, DU145 cell line. The conditions noted are these: human; for viability at 10 µM: DU145, 10 uM; for viability at 20 µM: DU145, 20 uM; for viability: DU145, 50 rpm. As for the experimental part:
as §1

Data set [3] concerns AKT serine phosphorylation (S473). In words: AKT phosphorylation by Western blotting. The conditions noted are these: BIA analogues, 10 μM. As for the experimental part:
This is AKT signaling key to cancer cell growth, and BIA and its analogues tend to inhibit it. Only representative experimental results were presented. Data were expressed as mean±SD. After one-way ANOVA, Tukey's post hoc test is conducted.
After cell recovery, cell lytic buffer (10 mM Tris-Cl (pH 7.4), 5 mM EDTA, 130 mM NaCl, 1% Triton X-100) and protease inhibitor mix protease inhibitor cocktail (protease inhibitor cocktail and phosphatase inhibitor cocktail) were added and left at 4° C. for 30 minutes. After breaking the cells with ultrasound, they were centrifuged at 13,000× g at 4° C. for 30 minutes, and then the supernatant was taken, and the concentration was quantified using a protein quantification kit (Bio-Rad Laboratories, Hercules, CA, USA). 20 ug of the obtained protein was electrophoresis with polyacrylamide gel electrophoresis (SDS-PAGE) followed by electrotransfer to PVDF membrane (Bio-Rad). The membrane was blocked at room temperature for 1 hour with a TBS-T solution (20 mM Tris (pH 7.5), 137 mM NaCl, 0.05% Triton X-100) containing 5% skim milk. Then, after switching to a solution containing the primary antibody, it was reacted at 4° C. The membrane after the reaction was washed three times with TBS-T solution, reacted with a secondary antibody, and then luminesced using an ECL kit and autoradiography. […]

For a further data set, the system named is BI-1 (TMBIM6). In words: TMBIM6-GCaMP3 fluorescence, calcium released through BI-1. The conditions noted are these: 10 μM, compared with DMSO control.

Each structure is given as a SMILES string. Where a name gives a salt, the structure may show the parent alone.

`O=C(/C=C/c1cccc([N+](=O)[O-])c1)c1ccccc1` [GM-90128, (E)-3-(3-nitrophenyl)-1-phenylprop-2-en-1-one]: in data set [1], the viability at 5 µM is 102% and the viability at 10 µM turned out to be 57.8%. For the same molecule, in data set [2], the viability at 10 µM is 81%, the viability at 20 µM turned out to be 72.2% and the viability amounted to 62.2%. The AKT serine phosphorylation result in data set [3] was “inhibited”.

Consider `COc1cc(N)c(C(=O)/C=C/c2cccc([N+](=O)[O-])c2)cc1OC` [GM-90254, (E)-1-(2-amino-4,5-dimethoxyphenyl)-3-(3-nitrophenyl)prop-2-en-1-one], for which, in data set [1], the viability at 5 µM worked out at 14.7% and the viability at 10 µM turned out to be 8.59%. Moreover, in data set [2], the viability at 10 µM came to 61.1%, the viability at 20 µM came to 31.5% and the viability came out at 8.51%. Further, the “inhibition of calcium release through BI-1 (TMBIM6-GCaMP3 fluorescence)” value in the data set with BI-1 (TMBIM6) is recorded as “stronger inhibitory effect”.

For `N#Cc1cccc(/C=C/C(=O)c2ccccc2N)c1` [GM-90282, (E)-3-(3-(2-aminophenyl)-3-oxoprop-1-en-1-yl)benzonitrile], in data set [1], the viability at 5 µM turned out to be 12.2% and the viability at 10 µM came out at 7.14%. Besides, in data set [2], the viability at 10 µM was found to be 72.9%, the viability at 20 µM amounted to 53.4% and the viability amounted to 9.57%.

In the case of `Nc1ccccc1C(=O)/C=C/c1cccc(C(F)(F)F)c1` [GM-90283, (E)-1-(2-aminophenyl)-3-(3-(trifluoromethyl)phenyl)prop-2-en-1-one], in data set [1], the viability at 5 µM was determined as 18.1% and the viability at 10 µM came to 11.9%. Also, in data set [2], the viability at 10 µM amounted to 59.9%, the viability at 20 µM was found to be 33.1% and the viability was 22.9%.

Regarding `Cc1cccc(/C=C/C(=O)c2ccccc2N)c1` [GM-90284, (E)-1-(2-aminophenyl)-3-(m-tolyl)prop-2-en-1-one], in data set [1], the viability at 5 µM was 86.4% and the viability at 10 µM amounted to 18.8%. Also, in data set [2], the viability at 10 µM was 88.4%, the viability at 20 µM amounted to 81% and the viability is 79%.

On to `Nc1ccccc1C(=O)/C=C/c1cccnc1` [GM-90285, (E)-1-(2-aminophenyl)-3-(pyridin-3-yl)prop-2-en-1-one], for which, in data set [1], the viability at 5 µM was determined as 71.5% and the viability at 10 µM was determined as 8.35%. In addition, in data set [2], the viability at 10 µM was found to be 83.5%, the viability at 20 µM is 82.8% and the viability was found to be 78.8%.

Regarding `CCOc1cccc(/C=C/C(=O)c2ccccc2N)c1` [GM-90295, (E)-1-(2-aminophenyl)-3-(3-ethoxyphenyl)prop-2-en-1-one], in data set [1], the viability at 5 µM came out at 103% and the viability at 10 µM is 82.4%. For the same molecule, in data set [2], the viability at 10 µM was 91.7%, the viability at 20 µM came to 86.7% and the viability is 84.7%. Moreover, in the data set on BI-1 (TMBIM6), the “inhibition of calcium release through BI-1 (TMBIM6-GCaMP3 fluorescence)” value is “stronger inhibitory effect”.

As to `Nc1ccccc1C(=O)/C=C/c1cccc(C(=O)O)c1` [GM-90296, (E)-3-(3-(2-aminophenyl)-3-oxoprop-1-en-1-yl)benzoic acid], in data set [1], the viability at 5 µM is 107% and the viability at 10 µM is 91.6%. Further, in data set [2], the viability at 10 µM turned out to be 91%, the viability at 20 µM came out at 82.3% and the viability is 76.9%. Besides, the “inhibition of calcium release through BI-1 (TMBIM6-GCaMP3 fluorescence)” value with BI-1 (TMBIM6) was “stronger inhibitory effect”.

As for `COc1ccc(C(=O)/C=C/c2cccc([N+](=O)[O-])c2)c(N)c1` [GM-90297, (E)-1-(2-amino-4-methoxyphenyl)-3-(3-nitrophenyl)prop-2-en-1-one], in data set [1], the viability at 5 µM was found to be 93.3% and the viability at 10 µM came out at 18.2%. In data set [2], the viability at 10 µM is 85.7%, the viability at 20 µM was 87.2% and the viability came to 83%.

Take `Nc1ccc(F)cc1C(=O)/C=C/c1cccc([N+](=O)[O-])c1` [GM-90298, (E)-1-(2-amino-5-fluorophenyl)-3-(3-nitrophenyl)prop-2-en-1-one]: in data set [1], the viability at 5 µM was 21.2% and the viability at 10 µM came out at 19%. Also, in data set [2], the viability at 10 µM is 68.9%, the viability at 20 µM turned out to be 62.3% and the viability came to 48.7%. Also, the “inhibition of calcium release through BI-1 (TMBIM6-GCaMP3 fluorescence)” value with BI-1 (TMBIM6) is “stronger inhibitory effect”.

With `CC(C)(C)OC(=O)Nc1cccc(/C=C/C(=O)c2ccccc2N)c1` [GM-90299, tert-butyl (E)-(3-(3-(2-aminophenyl)-3-oxoprop-1-en-1-yl)phenyl) carbamate], in data set [1], the viability at 5 µM was determined as 93.2% and the viability at 10 µM was 20.1%. Moreover, in data set [2], the viability at 10 µM came to 82.2%, the viability at 20 µM is 59% and the viability worked out at 17.2%. Further, in the data set on BI-1 (TMBIM6), the “inhibition of calcium release through BI-1 (TMBIM6-GCaMP3 fluorescence)” value was “stronger inhibitory effect”.

As for `CNC(=O)c1cccc(/C=C/C(=O)c2ccccc2N)c1` [GM-90300, (E)-3-(3-(2-aminophenyl)-3-oxoprop-1-en-1-yl)-N-methyl benzamide], in data set [1], the viability at 5 µM stood at 99.5% and the viability at 10 µM turned out to be 23.4%. Further, in data set [2], the viability at 10 µM is 62.6%, the viability at 20 µM was determined as 58.5% and the viability amounted to 54.5%.

For the molecule `Nc1cccc(/C=C/C(=O)c2ccccc2N)c1` [GM-90315, (E)-1-(2-aminophenyl)-3-(3-aminophenyl)prop-2-en-1-one Hydrochloride], in data set [1], the viability at 5 µM is 41.1% and the viability at 10 µM turned out to be 11.2%. In data set [2], the viability at 10 µM amounted to 98%, the viability at 20 µM worked out at 97.9% and the viability came out at 88.9%.

As to `Nc1ccccc1C(=O)/C=C/c1cc(F)c(O)c(F)c1` [GM-90316, (E)-1-(2-aminophenyl)-3-(3,5-difluoro-4-hydroxyphenyl)prop-2-en-1-one], in data set [1], the viability at 5 µM turned out to be 101% and the viability at 10 µM came to 67.8%. Moreover, in data set [2], the viability at 10 µM turned out to be 87.4%, the viability at 20 µM was 60% and the viability stood at 38.4%.

Turning to `Nc1ccccc1C(=O)/C=C/c1cccc(Cl)c1` [GM-90317, (E)-1-(2-aminophenyl)-3-(3-chlorophenyl)prop-2-en-1-one], in data set [1], the viability at 5 µM turned out to be 46.8% and the viability at 10 µM is 14.4%. For the same molecule, in data set [2], the viability at 10 µM is 32.4%, the viability at 20 µM was determined as 28.1% and the viability came out at 11.9%.

Take `Nc1ccccc1C(=O)/C=C/c1cccc(F)c1` [GM-90318, (E)-1-(2-aminophenyl)-3-(3-fluorophenyl)prop-2-en-1-one]: in data set [1], the viability at 5 µM came out at 21.4% and the viability at 10 µM came out at 11.8%. In the data set on BI-1 (TMBIM6), the “inhibition of calcium release through BI-1 (TMBIM6-GCaMP3 fluorescence)” value is reported as “stronger inhibitory effect”.

`COc1cc(N)c(C(=O)/C=C/c2cccc(C#N)c2)cc1OC` [GM-90319, (E)-3-(3-(2-amino-4,5-dimethoxyphenyl)-3-oxoprop-1-en-1-yl)benzonitrile]: in data set [1], the viability at 5 µM was determined as 46.6% and the viability at 10 µM worked out at 9.94%. Further, in data set [2], the viability at 10 µM stood at 110%, the viability at 20 µM was 88.1% and the viability was determined as 85.8%.

For `COc1cc(N)c(C(=O)/C=C/c2cccc(C(F)(F)F)c2)cc1OC` [GM-90320, (E)-1-(2-amino-4,5-dimethoxyphenyl)-3-(3-(trifluoromethyl)phenyl)prop-2-en-1-one], in data set [1], the viability at 5 µM worked out at 94.5% and the viability at 10 µM worked out at 62.7%. For the same molecule, in data set [2], the viability at 10 µM is 89.1%, the viability at 20 µM was 89.1% and the viability turned out to be 82.4%.

For the molecule `COc1cc(N)c(C(=O)/C=C/c2cc(O)cc(Br)c2)cc1OC` [GM-90321, (E)-1-(2-amino-4,5-dimethoxyphenyl)-3-(3-bromo-5-hydroxyphenyl)prop-2-en-1-one], in data set [1], the viability at 5 µM was 61.2% and the viability at 10 µM amounted to 21.2%. Further, in data set [2], the viability at 10 µM is 83.6%, the viability at 20 µM amounted to 81.8% and the viability turned out to be 84.8%.

Turning to `N/C(=N\O)c1cccc(/C=C/C(=O)c2ccccc2N)c1` [GM-90338, (Z)-3-((E)-3-(2-aminophenyl)-3-oxoprop-1-en-1-yl)-N′-hydroxy Benzimidamide], in data set [1], the viability at 5 µM was determined as 44.7% and the viability at 10 µM was determined as 10.5%. For the same molecule, in data set [2], the viability at 10 µM stood at 42.8%, the viability at 20 µM was 31.9% and the viability worked out at 11.1%. Besides, in the data set on BI-1 (TMBIM6), the “inhibition of calcium release through BI-1 (TMBIM6-GCaMP3 fluorescence)” value is given as “stronger inhibitory effect”.

As for `Nc1ccccc1-c1cc(-c2cccc(C(F)(F)F)c2)on1` [GM-90340, 2-(5-(3-(trifluoromethyl)phenyl)isoxazol-3-yl)aniline], in data set [1], the viability at 5 µM was 88.7% and the viability at 10 µM amounted to 80.2%. In data set [2], the viability at 10 µM was determined as 92.9%, the viability at 20 µM worked out at 89.3% and the viability turned out to be 76.1%.
